Test results from US12714678B2, “Peptides and methods of treating sepsis, atherosclerosis, thrombosis, stroke, heart attack and inflammation” (THE BOARD OF TRUSTEES OF THE UNIVERSITY OF ILLINOIS, priority 2019, dated 2026).
Where a SMILES comes first, the peptide text is derived from it. Bridges are numbered along the chain shown (N, C = ends). Where no end group is shown, it is not given here. [ ]: non-standard residue; d: D form. The star is where a group is joined. hArg = N=C(N)NCCCC[C@H](N)C(=O)O; Myristoyl = CCCCCCCCCCCCCC(=O)*; Mpa = O=C(O)CCS

What was measured:
[1] = system: human platelets; assay: Human platelet granule (ATP) secretion (lumiaggregometer); format: cell-based; conditions: for integrin-dependent second wave of ATP/granule secretion induced by U46619 / integrin-independent first wave of ATP/granule secretion induced by U46619: human platelets (Integrilin: mouse and human platelets); for ATP secretion induced by thrombin: washed human platelets pretreated with peptide
Method: (§1) For human subjects, Institutional Review Board approval was obtained from the University of Illinois at Chicago, and informed consent from volunteers was obtained in accordance with the Declaration of Helsinki. Platelets were prepared as previously described (33). Platelet aggregation and adenosine triphosphate (ATP) secretion were measured simultaneously in a lumiaggregometer (Chronolog) at 37° C. with stirring (1000 rpm), as previously described (34).
(§2) To prepare platelet-rich plasma (PRP), whole blood was anticoagulated with 3.8% trisodium citrate. To prepare human platelets, one-seventh volume of ACD was used as anticoagulant. Platelets were washed twice and resuspended in modified Tyrode's buffer as previously described (27). Platelet aggregation and adenosine triphosphate (ATP) secretion were measured simultaneously in a lumiaggregometer (Chronolog) at 37° C. with stirring (1000 rpm) as previously described (28).

[2] = Acute maximal tolerated dose (MTD) in mice; conditions: mouse, in vivo, 60 mg/kg; CD-1 mice, IV tail vein, single injection, observed 8 days; read-out: maximal tolerated dose (MTD) = maximal feasible dose
Method: Four more animals were then injected with the same dose. The animals were observed 2 times per day for 8 days for clinical signs of toxicity.

[3] = system: Sprague-Dawley (SD) rats; assay: Toxicity of bolus and continuous intravenous infusion in rats; format: in vivo; conditions: IV bolus 100 mg/kg followed by IV infusion 25 mg/kg/hr for 24 hr
Method: (§3) Toxicological responses to bolus and continuous intravenous infusion of M3mP6 HLPN were performed using jugular vein catheterized (JVC) Sprague-Dawley (SD) rats (6-8 weeks old and […]), which were quarantined for at least 3 day after arrival. Four SD rats (n=2 per sex) was given an IV bolus dose of M3mP6 (100 mg/kg, dose volume 10 mL/kg) followed by IV infusion dose of M3mP6 for 24 hr (25 mg/kg/hr for a total dose of 600 mg/kg/day). […] A pilot 7-day continuous infusion study in rats was performed similarly with lower drug concentrations. The parameters observed include mortality, clinical signs, body weights, hematology, clinical chemistry and organ weights. For pharmacokinetic studies, plasma samples for drug analysis were obtained from blood samples collected in satellite 6 males and 6 females (3 rat/sex per time-point) in the dose Groups 3 and 4 (Phase 2) at the following time-point on Day 1 after the bolus dose and infusion were started: 5, 10 and 30 minutes, and 1, 2, 6 and 24 hours. Additional blood samples were collected prior to the end of 5-day infusion, immediately after stopping the infusion, and at 30 minutes, and 1, 4, 6, 24 and 48 hours after the end of the infusion.

[4] = Pharmacokinetics in mice; format: in vivo, mouse; conditions: intravenous injection of 5 mg/kg (5 μmol/kg)
Method: For pharmacokinetic studies, CD-1 mice were intravenously injected with 5 mg/kg (5 μmol/kg) M3mP6 (potential therapeutic dose). At the following time points: 0 (pre-dose) min, 5 min, 10 min, 30 min, 1, 2, 4, 6, and 24 hours, 3 drug-treated mice were sacrificed, and their blood drawn via vena cava into K2EDTA tubes. Whole blood and plasma were analyzed for M3mP6 concentrations using Agilent 1290 Infinity LC and 6430 triple quadrupole mass spectrometer and MassHunter software.

[5] = Pharmacokinetics in rats (5-day infusion); parameters: species or system rat; conditions: Sprague-Dawley, in vivo
Method: as §3

[6] = system: C57BL/6 mice; assay: Tail bleeding time; conditions: cangrelor 30 μg/kg; for tail bleeding, drugs injected after initiation of thrombosis: M3mP6 10 μmol/kg; for tail bleeding time vs normal control: M3mP6 HLPN 10 μmol/kg, aspirin 4.3 mg/kg, clopidogrel 4 mg/kg, ticagrelor 3 mg/kg, MB2mP6
Method: M3mP6 was administered via retro-orbital injection 15 minutes prior to procedure.
Tail bleeding time was performed as previously described (21, 39). Eight- to 10-week-old C57BL/6 mice were anesthetized with isoflurane. After cutting 0.5-cm-long segment of the distal tip of the tail, their tails were immersed in 0.15 M NaCl immediately at 37° C. Tail bleeding time was defined as the time between cutting tail and stable cessation of bleeding (no rebleeding within 60s). […] If bleeding persisted at 15 minute time point, bleeding was stopped by application of pressure. Data were analyzed using Mann-Whitney test to compare medians between groups.
Tail bleeding time was performed as previously described (16, 29). Eight- to 10-week-old C57BL/6 mice weighing 20-25 g were anesthetized with isoflurane. After cutting a 0.5-cm-long segment off the distal tip of the tail, their tails were immersed in 0.15 M NaCl immediately at 37° C. Tail bleeding time was defined as the time between cutting the tail and stable cessation of bleeding (no re-bleeding within 60s). […] If bleeding persisted at 15 minutes, bleeding was stopped by application of pressure. Data were analyzed using the Mann-Whitney test to compare medians between groups.

[7] = system: C57BL/6 mice; assay: FeCl3-induced mouse carotid artery thrombosis model; format: in vivo; conditions: for formation of stable occlusive thrombus / occlusion time vs normal control: 7.5% FeCl3, M3mP6 HLPN 5 or 10 μmol/kg retro-orbital 15 min before, aspirin 4.3 mg/kg oral 2 h, clopidogrel 4 mg/kg oral 2 h, MB2mP6 15 min before; for anti-thrombotic effect compared with M3mP6 HLPN (10 μmol/kg), pre-injury dosing: clopidogrel 4 mg/kg, ticagrelor 3 mg/kg, aspirin 4.3 mg/kg oral, cangrelor 30 μg/kg retro-orbital, MB2mP6
Method: The right carotid artery was isolated (34, 37). A MA-0.5SB nanoprobe (Transonic Systems, Ithaca, NY) was hooked to the carotid artery to monitor blood flow with a TS420 flowmeter (Transonic Systems) as previously described (38). After stabilization, carotid arterial thrombosis was induced with 7.5% ferric chloride (FeCl3) (Sigma Aldrich, St. Louis, MO), a filter paper disc (2 mm diameter) soaked with 1.2 μL of 7.5% FeCl3 was placed on top of the artery for 3 minutes, and then removed. M3mP6 HLPN, HLPN of scrambled control peptide, HLPN of a second control peptide carrying AAA mutation or physiological saline solution were injected 15 minutes before procedure retro-orbitally. […] To study the effect of post-injury drug injection on thrombosis development, the filter paper disc soaked with 1.2 μl 3.75% FeCl3 were placed on artery for 2 minutes, and drugs were injected retro-orbitally 3 minutes after removing the filter paper. Blood flow was monitored continuously until 5 minutes after occlusion or for 30 minutes if no occlusion occurred. Time to occlusion was defined as the time between the removal of the filter paper and stable occlusion (no blood flow for 2 minutes).
Eight- to 10-week-old C57BL/6 mice (20-25 g body weight) were anesthetized by isoflurane inhalation. The right carotid artery was isolated. A MA-0.5SB nanoprobe (Transonic Systems, Ithaca, NY) was hooked to the carotid artery to monitor blood flow with a TS420 flowmeter (Transonic Systems) as previously described (29). After stabilization, a filter paper disc (2 mm diameter) soaked with 1.2 μL of 7.5% FeCl3 (Sigma Aldrich, St. Louis, MO) was placed on top of the carotid artery for 3 minutes to induce thrombosis and then removed. MB2mP6 or scrambled control peptide were injected 15 minutes before the procedure retro-orbitally. Blood flow was monitored continuously until 5 minutes after occlusion or for 15 minutes if no occlusion occurred. Time to occlusion was defined as the time between the removal of the filter paper and stable occlusion (no blood flow for 5 minutes).

[8] = system: C57BL/6 mice; assay: Laser-induced mouse cremaster arteriolar thrombosis and intravital microscopy; format: in vivo; conditions: M3mP6 HLPN 10 μmol/kg, cangrelor 30 μg/kg
Method: Laser-induced thrombosis and intravital microscopy are performed as previously described using male C57BL/6 mice (6-8 weeks old) anesthetized by intraperitoneal injection of ketamine and xylazine (36). Platelet thrombi were indicated by infusion of DyLight 649-labeled anti-mouse […], Germany). Fibrin deposition was tracked by Alexa Fluor (AF) 488-labeled monoclonal anti-fibrin antibody (clone 59D8) as previously described (25). Suspensions of M3mP6 HLPN (10 μmol/kg) or a control peptide (Myr-ERAFEE (SEQ ID NO: 47)) HLPN in 0.15 M NaCl or cangrelor were injected 15 min or immediately prior to induction of injury. Fluorescence and bright-field images were recorded by an Olympus BX61W microscope with a 603/1.0 NA water immersion objective and a high-speed camera (5 frame/second) through an intensifier at 27-30 injury sites in 7 mice per group. The movies shown are compressed to 100 frame/second.

[9] = system: C57BL/6 mice; assay: Arterial perforation bleeding analysis (carotid artery perforation model of surgical bleeding); format: in vivo, mouse; conditions: M3mP6 HLPN 10 μmol/kg; cangrelor loading dose 30 μg/kg
Method: The right carotid artery was isolated as previously described (34, 37) and punctured with a 27½G needle in the middle of carotid artery. The perforating wound was immediately covered with a 4×4 mm hemostatic pad (CERTI-GAUZE™, Kansas City, MO), which serve to absorb extravascular blood and also help stop bleeding similarly to that during vascular procedures. The pad was removed after 15 minutes regardless whether bleeding continued or not. The volume of blood absorbed on the pad during the 15-minute period was quantified by estimating the amount of hemoglobin. To do so, adsorbed blood on the pad was dissolved into 30 mL double distilled water. To 1 mL of dissolved blood, 1 mL of the 2× Drabkin's Solution was added. After fully mixing and incubating for 20 minutes at room temperature, the absorbance of the samples was analyzed at 540 nm wave length with a spectrophotometer. Known volumes of blood were similarly analyzed to establish a standard curve for the calculation of blood volume on the pad. Data were analyzed by Mann-Whitney test for statistical significance.

[10] = system: human platelets; assay: Human platelet aggregation (lumiaggregometer); format: cell-based; conditions: washed human platelets pretreated with peptide
Method: as §1, §2

[11] = Peptide loading, peptide concentration and dissolution of the nanoparticle/micelle formulation; format: physicochemical; conditions: HLPN, or lipid micellar suspension for mP6
Source text: The peptide myr-FEEERL(SEQ ID NO: 25) was modified from the original […] cytoplasmic domain sequence to make it more suitable to form peptide-based nanoparticle, and was formulated to form lipid-stabilized high-loading peptide nanoparticles together with PEG2000-DSPE (Avanti Polar Lipids Inc. Alabaster, AL), L-α-phosphatidylcholine (egg PC, Type XI-E, Sigma-Aldrich, St. Louis, MO) with a peptide to PEG-DSPE to PC molar ratio of 36.8:51.7:11.5 or 50:40:10 (further improved formulation with identical in vivo effect) using thin-film rehydration (21, 31). The size distribution of nanoparticles were determined using dynamic light scattering (DLS) (Malvern, Zetasizer Nano ZS90, Worcestershire, U.K.) as previously described (32). This method uses light scattering to monitor the Brownian motion of the particles. Particle size is presented as volume weighted diameter distribution.

[12] = reference (21); cited from earlier work

Compound: N=C(N)NCCCC[C@@H]1NC(=O)CCSSC[C@@H](C(N)=O)NC(=O)[C@@H]2CCCN2C(=O)[C@H](Cc2c[nH]c3ccccc23)NC(=O)[C@H](CC(=O)O)NC(=O)CNC1=O [Integrilin, reference compound] ([Mpa][hArg]GDWPC-NH2; disulfide 1-7)
- integrin-dependent second wave of ATP/granule secretion induced by U46619 [1]: diminished
- integrin-independent first wave of ATP/granule secretion induced by U46619 [1]: significantly enhanced
- platelet granule secretion, low dose thrombin, integrin antagonist-treated platelets ([1]; wild type mouse or human platelets): enhanced

Compound: CCCCCCCCCCCCCC(=O)N[C@@H](Cc1ccccc1)C(=O)N[C@@H](CCC(=O)O)C(=O)N[C@@H](CCC(=O)O)C(=O)N[C@@H](CCC(=O)O)C(=O)N[C@@H](CCCNC(=N)N)C(=O)N[C@@H](CC(C)C)C(=O)O [M3mP6, Myr-FEEERL] (Myristoyl-FEEERL-OH; C-terminus assumed)
- MTD at 8 days [2]: 60 mg/kg
- toxicity during 3-4 days post dose (single dose MTD) [3]: no toxicity was observed
- half-life ([4]; CD-1, mouse, in vivo, read-out: t1/2−λz (converted)): 2.46 h
- maximum level in whole blood [4]: 33.36 ng/mL
- half-life ([5]; female, rat, iv): 3.7 h
- half-life ([5]; male, rat 5-day infusion study, read-out: t1/2−λz (half-life after cessation of infusion), male (converted)): 3.1 h
- tail bleeding, drugs injected after initiation of thrombosis [6]: but not M3mP6 caused significant bleeding

Compound: CC(=O)Oc1ccccc1C(=O)O [aspirin]
- formation of stable occlusive thrombus / occlusion time vs normal control [7]: not significantly different
- occlusive thrombus formation, high dose aspirin experiment ([7]; aspirin 36 mg/kg i.p. 1 hour prior, M3mP6 HLPN 5 μmol/kg, combination): no significant effect

Compound: CSCCNc1nc(SCCC(F)(F)F)nc2c1ncn2[C@@H]1O[C@H](COP(=O)(O)OP(=O)(O)C(Cl)(Cl)P(=O)(O)O)[C@@H](O)[C@H]1O [cangrelor]
- anti-thrombotic effect compared with M3mP6 (10 μmol/kg), drugs injected after initiation of thrombosis ([7]; 3.75% FeCl3, cangrelor 30 μg/kg): no statistical difference
- anti-thrombotic effect compared with M3mP6 HLPN (10 μmol/kg), pre-injury dosing [7]: moderately but significantly better
- intravascular fibrin clot formation at the site of vascular injury [8]: moderate effect
- platelet thrombus formation ([8]; preinjected): completely inhibiting
- bleeding from perforated artery vs control mice [9]: caused excessive bleeding
- tail bleeding, drugs injected after initiation of thrombosis [6]: caused significant bleeding
- tail bleeding time vs normal control [6]: dramatically increased

Compound: COC(=O)[C@H](c1ccccc1Cl)N1CCc2sccc2C1 [clopidogrel]
- formation of stable occlusive thrombus / occlusion time vs normal control [7]: moderate but significant delay
- anti-thrombotic effect compared with M3mP6 HLPN (10 μmol/kg), pre-injury dosing [7]: significantly less effective

Compound: CCCSc1nc(N[C@@H]2C[C@H]2c2ccc(F)c(F)c2)c2nnn([C@@H]3C[C@H](OCCO)[C@@H](O)[C@H]3O)c2n1 [ticagrelor]
- tail bleeding time vs normal control [6]: dramatically prolonged

Compound: myr-EEERA (Myristoyl-EEERA) [mP5]
- thrombin-induced platelet aggregation [10]: partially inhibited
- integrin-dependent second wave of ATP/granule secretion induced by U46619 [1]: reduced
- integrin-independent first wave of ATP/granule secretion induced by U46619 [1]: significantly enhanced
- ATP secretion induced by thrombin [1]: enhanced

Compound: myr-FEEERA (Myristoyl-FEEERA) [mP6]
- peptide concentration in injectable/micellar suspension [11]: 1 mM
- peptide loading, of total molar content (mol/mol) [11]: < 4%
- thrombin-induced platelet aggregation [10]: potently inhibited
- integrin-dependent second wave of ATP/granule secretion induced by U46619 [1]: diminished
- integrin-independent first wave of ATP/granule secretion induced by U46619 [1]: diminished
- ATP secretion induced by thrombin [1]: significantly inhibited
- maximal concentration of peptide in lipid micellar formulation [12]: < 1 mM
- maximal peptide content of lipid micellar formulation (mol/mol) [12]: ≤ 4%
